In a melting point compilation (Tetko et al.; mined from patent text by program, amines drawn as free bases though some values may be those of a salt):

SMILES | melting point [°C]
Nc1ccc2sc(C=Cc3ccccc3)nc2c1 | 154 to 156
CCOC(=O)c1cc(O)n2c(C)nnc2n1 | 201 to 203
Cc1c(-c2ccccc2)c(=O)[nH]c2ccccc12 | 266 to 268
CCc1c(C)cc(C#N)c(N)c1C#N | 121 to 123
CN(C)Cc1c(-c2cc(C(C)(C)C)c(O)c(C(C)(C)C)c2)nc2n1CCS2 | 188 to 191
CC(=O)NCC1CN(c2cc(F)c(N3CCN(C(=O)COC(=O)c4cccnc4)CC3)c(F)c2)C(=O)O1 (centres undefined) | 213 to 214
O=C1NCC(CN2CCN(c3cccc(C(F)(F)F)c3)CC2)O1 (centres undefined) | 122 to 124
COc1cccc(/C(=C\C=C\C(=O)NCCCCc2cccnc2)c2cccc(F)c2)c1 | 96 to 98
COCC(C)Oc1cc(Oc2ccc(S(C)(=O)=O)nc2)cc2cc(C3=NCC(CC(N)=O)S3)[nH]c12 (centres undefined) | 131 to 132
CCOC(=O)C1=COc2cc(C(C)=O)ccc2O1 | 122
Cc1nc(N)n(N)c(=O)c1CCO | 126 to 135
O=C(O)C=CC(=O)OC1CCN(C(=O)Cn2c(=O)sc3ccc(Cl)cc32)CC1 | 197 to 198
CC(C)(C)c1cc(C(c2ccccc2)N2CCCCC2)c(O)c(C(C)(C)C)c1 (centres undefined) | 140 to 141
COC(=O)CCCc1ccc(NC(=O)[C@@H](Cc2ccc(OCc3ccccc3)cn2)NC(=O)OC(C)(C)C)cc1 | 166 to 167
CCC1(CC(=O)O)CCC(c2ccccc2)c2c1n(C)c1cc(OCc3ccc4ccccc4n3)ccc21 (centres undefined) | 185 to 191
COc1ccc2cc(-c3cccnc3)cc(C)c2n1 | 117 to 118
COc1ccc(C(C)(C)C)c(O)c1C(=O)Nc1ccc(S(=O)(=O)C(F)(F)F)cc1Cl | 198 to 199
CCn1cc(C(=O)O)c(=O)c2cc(F)c(N3CCOC(CCl)C3)c(F)c21 (centres undefined) | 212 to 215
CCCCc1nc2c(N)nc3ccccc3c2n1CCCCNS(=O)(=O)Cc1ccccc1 | 197 to 200
CC1(C)CC(=O)C(C(=O)Nc2ccc(Cl)c(Cl)c2)C(=O)O1 (centres undefined) | 212 to 215
Cc1oc(-c2ccccc2)nc1CCOc1ccc(CC2SC(=O)NC2=O)c2sccc12 (centres undefined) | 196 to 197
CC(C(=O)O)C(=O)NCCC=C1c2ccccc2CCc2ccccc21 (centres undefined) | 174 to 176
COc1ccc2c(OC(C)C)c(C(N)=O)ccc2c1 | 183 to 184
CCOC(=O)C(=CNc1coc2ccc(Cl)cc2c1=O)C(=O)OCC | 143 to 145
CN(C)C(=O)CNc1cc(-c2ccccc2)nc(-c2ccc(C(F)(F)F)cc2)n1 | 178 to 179

SMILES | melting point [°C]
Cc1c(OCC(F)(F)C(F)F)ccnc1CO | 67 to 68
CCC(=O)N(C(=O)CC)c1cc(-c2c(-c3cccc(C)c3)nc3cccnn23)ccn1 | 210 to 211
CCOC(=O)c1cccc(-c2ccc(F)c3cc(CBr)sc23)c1 | 139 to 140
CNC(=O)[C@H]1CN(c2ccc3c(c2)sc(=O)n3C(C)C)C(=O)O1 | 172 to 174
CCCc1c(OCCCOc2ccccc2)ccc2c1OC(CCC(=O)O)(CCC(=O)O)CC2O (centres undefined) | 132
C=Cc1ccc(NC(=O)N2CCN(c3ncnc4cc(OC)c(OC)cc34)CC2)cc1 | 214 to 216
COc1ccccc1-n1c(=O)[nH]c2c(C(N)=O)nc(-c3cccc(C(F)(F)F)c3)nc21 | 271 to 275
COc1cc2nc(N3CCN(C(=O)C45CC6CC(CC(C6)C4)C5)CC3)nc(N)c2cc1OC | 237 to 240
Cc1nc(-c2ccccc2N)[nH]c1-c1cccnc1 | 221 to 222
COCCOc1cc(OCCN2CCCC2)c2c(=O)[nH]c(-c3cc(C)nc(C)c3)nc2c1 | 60.4 to 62.3
CCCN1NCc2c(C3C(=O)Nc4ccc(Br)cc43)ncnc21 (centres undefined) | 295 to 300
CC(C)(C1CCCCC1)C(NC(=O)c1ccc(Cl)cc1)NC(=N[N+](=O)[O-])Nc1cccnc1 (centres undefined) | 201 to 203
Nc1cc(Oc2ccc(NC(=O)Nc3ccc(-c4ccccn4)c(C(F)(F)F)c3)cc2)ncn1 | 188 to 192
COc1ccc(CSc2cc(OC)c(OC)c(OC)c2)cc1 | 65 to 67
O=C(O)CCc1ccc(OCC2CCN(c3ccncc3)CC2)cc1 | 303 to 307
COc1ccc(N2CCN(Cc3coc4c(OC)cccc34)CC2)cc1 | 126 to 127
O=C1CC[C@@H](COc2cccnc2)N1 | 121 to 122
O=C(CCCCOc1ccc(-c2ccc(F)cc2)cc1)NO | 160 to 162
O=C(O)C(O)c1ccc(-n2cccc2)cc1 (centres undefined) | 168
CCCCc1nc(C=O)c(Br)[nH]1 | 113
CC(=O)OC1=CC2=CCC3C(CCC4(C)C(OC(C)=O)CCC34)C2CC1 (centres undefined) | 165 to 171
O=c1c2c(Cc3ccc(OC(F)(F)F)cc3)n[nH]c2c2cccnc2n1-c1cccc(OC(F)(F)F)c1 | 129 to 132
O=C(C=Cc1cncnc1)CCCCc1ccc2c(n1)NCCC2 | 101 to 102
CC(C)(O)C(=O)N[C@H]1CC[C@H](CCN2CCN(c3nccc4c3CCO4)CC2)CC1 | 201
O=C1CC=C(c2c[nH]c3cc([N+](=O)[O-])ccc23)CC1 | 175 to 177

SMILES | melting point [°C]
CN(C)CCN(C)C(=O)Cn1c(-c2ccc(Cl)cc2)nc2cccnc21 | 120 to 122
CC1(C)CC(=C(c2ccc(O)cc2)c2ccc(-c3ccccc3C(=O)O)cc2)CC(C)(C)C1 | 230 to 231
CCCCCCCCCCCCn1nnnc1Cc1ccccc1 | 50 to 51
O=[N+]([O-])C[C@@H](O)[C@H](O)[C@@H](O)[C@@H](O)CO | 89 to 91
CNC(Cc1ccccc1NC(=O)C(C)(C)C)c1ccsc1 (centres undefined) | 81 to 84
COCC(O)COc1cccc2c1CCNC2=O (centres undefined) | 119 to 123
CC(C(N)=O)c1ccc(NS(=O)(=O)C(C)C)cc1 (centres undefined) | 125 to 127
Cc1c(-c2ccc(Cl)c(F)c2)sc2nc(N)[nH]c(=O)c12 | 350 to 370
CCOCc1nc2c(N)nc3ccccc3c2n1CC(C)(C)O | 190 to 193
CC(=O)Nc1cccc2c1C(=O)c1c-2n[nH]c1-c1ccc(N(C)C)cc1 | > 300
O=C(CNc1ccccc1)Nc1cc(F)c(F)cc1C(=O)O | 124 to 126
CCC(C(O)c1ccc(Cl)cc1)n1ncn(-c2ccc(N3CCN(C(=O)NC)CC3)cc2)c1=O (centres undefined) | 221
CCc1ccc(-c2cn(C)cc(-c3ccccc3)c2=O)cc1 | 143 to 145
CCC(=O)c1cc(Cl)c(O)c(Cl)c1 | 50 to 52
O=C(C(=O)c1ccc(F)cc1)c1ccncc1 | 84 to 86
O=C(Cc1ccc2c(c1)CCC(NS(=O)(=O)c1cccs1)C2)Nc1ccc(C(=O)O)cc1 (centres undefined) | 250 to 252
CSc1n[nH]c(NC(=O)c2ccccc2O)n1 | 306 to 309
Cc1oc(-c2ccccc2)nc1COc1ccc(CO)nc1 | 125 to 126
CCCCCNC(=O)[C@H](Cc1ccc(OCC(=O)O)c(-c2nn[nH]n2)c1)NC(=O)[C@H](Cc1ccccc1)NC(=O)OC(C)(C)C | 121 to 123
C1=c2ccn3c2=C(CC1)c1nncn1-c1ccccc1-3 | 177 to 178
c1cc2c3c(nnc4c3c1OCC4)CCO2 | 249
NNc1nc(F)c(C(F)(F)F)cc1Cl | 104 to 106
COc1cc2c(cc1OC)C(C(C#N)SCCCO)=NCC2 (centres undefined) | 155 to 156
N#Cc1cc(F)c(N)c(F)c1 | 110 to 111
CC(C)(C)c1ccc(C(=O)Nc2cn3cc(-c4cccnc4)ccc3n2)cc1 | 288 to 289

SMILES | melting point [°C]
COc1cc(C(=O)N(C(C)C)C2CCCCC2)ccc1Cn1ccc2ncnc-2c1C | 185 to 187
O=[N+]([O-])c1cc([N+](=O)[O-])c(Nc2c(Br)cc(Cl)c3ccccc23)c(C(F)(F)F)c1 | 207 to 209
O=S(=O)(c1ccc(-n2cccn2)cc1)N1CCC(CNCC(O)COc2ccc(O)cc2)CC1 (centres undefined) | 169 to 171
CCCCCC(=O)NCCCSc1ccncc1 | 48 to 49
CCOc1cccc(CN2CCc3cc(O)ccc3C2)c1 | 120 to 121
Cc1ccc(-c2ccc(OC3SCC(O)C(O)C3O)c(F)n2)cn1 (centres undefined) | 189 to 190
CC(C)(C)OC(=O)NCCn1cc(COc2ccc(C3=NC(=Nc4[nH]c(-c5ccc(O)cc5)cc4-c4ccccc4)C(c4ccccc4)=C3)cc2)nn1 | 128 to 130
CC(C)n1nc(-c2c(-c3ccccc3)nn3ccc(OCC(=O)N(C)C)cc23)ccc1=O | 189 to 190
CCCCCCCCC=CCCCCCCCCCCCCNC(=O)C=CC(=O)O | 55
CCOC(=O)Nc1ccc(-c2c[nH]c(=O)cn2)cc1 | 260 to 262
CCN(C(=O)CN1C(=O)c2ccccc2C1=O)c1ccc(C)c(CO)c1C | 205 to 207
O=C(NC1CC1)c1cccc(-c2ccc3c(c2)N(c2ccc(Cl)cc2Cl)CC3)c1 | 215 to 218
CCC(CC)Nc1nnc(-c2ccccc2)c2ccccc12 | 210
Cc1cccc(NC(=O)NC(C)C(=O)N(c2ccccc2)c2ccccc2)c1 (racemic) | 82
CNc1nc(-c2ccc(F)cc2)c(I)c(C(C)C)n1 | 195 to 196
CCCc1c(SCCCOc2ccc3c(=O)cc(C(=O)O)oc3c2CCC)ccc(C(C)=O)c1N | 202 to 204
N#CCc1ccccc1CCNC(=O)c1ccc([N+](=O)[O-])cc1 | 119
COc1ccc(-c2cc(=S)n(Cc3cccnc3)nc2-c2ccc(OC)cc2)cc1 | 163 to 164
CCc1cc2oc3cc(-c4ccccc4Cl)c4c(c3c2cc1O)C(=O)NC4=O | 265 to 268
O=Cc1sccc1-c1noc2ccccc12 | 173 to 174
C#CC[C@@H](NC(=O)OC(C)(C)C)c1nc2cc(Cl)ccc2c(=O)n1Nc1ccccc1 | 155 to 157
O=C(O)CCCCCOc1cccc(CCCCCCOc2ccc3c(c2CCCc2ccccc2)OCCC3=O)c1CCC(=O)O | 97 to 98
COc1cccc(NC(=O)NC2CC(c3ccccc3)CC(Cc3ccccc3)N(CC(=O)OC(C)(C)C)C2=O)c1 (centres undefined) | 95 to 105
O=C(NCCn1cc(C(=O)OCc2ccccc2)ccc1=O)c1cccnc1 | 154 to 155
